Measured values published in BindingDB's records for doi:10.1021/jm040209d (University of Illinois At Urbana-Champaign, 2005).

Target: Farnesyl diphosphate synthase (Leishmania major)
Assay: Binding affinity towards Farnesyl diphosphate synthase from leishmania major

Row | Compound | Ki
1 | COc1ccc[n+](CC(O)(P(=O)([O-])O)P(=O)(O)O)c1 (configuration not stated) [hydrogen 1-hydroxy-2-(3-methoxypyridinium-1-yl)-1-phosphonoethylphosphonate] | 30 nM
2 | Cc1ccc[n+](CC(O)(P(=O)([O-])O)P(=O)(O)O)c1 (configuration not stated) [hydrogen 1-hydroxy-2-(3-methylpyridinium-1-yl)-1-phosphonoethylphosphonate] | 38 nM
3 | Cc1cccc(Cc2ccc[n+](CC(O)(P(=O)([O-])O)P(=O)(O)O)c2)c1 (configuration not stated) [hydrogen 1-hydroxy-2-[3-(3-methylbenzyl)pyridinium-1-yl]-1-phosphonoethylphosphonate] | 70 nM
4 | O=P([O-])(O)C(O)(C[n+]1cccc(-c2ccc(O)cc2)c1)P(=O)(O)O (configuration not stated) [sodium hydrogen 1-hydroxy-2-[3-(4-oxidophenyl)pyridinium-1-yl]-1-phosphonoethylphosphonate] | 75 nM

Other lines, results leading:

Row | Ki | Compound
5 | 160 nM | O=P([O-])(O)C(O)(C[n+]1cccc(Cc2ccccc2)c1)P(=O)(O)O (configuration not stated) [hydrogen 2-(3-benzylpyridinium-1-yl)-1-hydroxy-1-phosphonoethylphosphonate]
6 | 20 nM | CCCCc1ccc[n+](CC(O)(P(=O)([O-])O)P(=O)(O)O)c1 (configuration not stated) [hydrogen 2-(3-butylpyridinium-1-yl)-1-hydroxy-1-phosphonoethylphosphonate]
7 | 50 nM | O=P([O-])(O)C(O)(C[n+]1cccc(F)c1)P(=O)(O)O (configuration not stated) [hydrogen 2-(3-fluoropyridinium-1-yl)-1-hydroxy-1-phosphonoethylphosphonate]
